Experiments:
Assay type in all cases: in vivo
Zymoseptoria tritici = assay: Leaf blotch of wheat (SEPTTR) disease control on wheat seedlings; details: low volume application, 125.1 g/H; for SEPTTR 1DP disease control rating, LV activity at 125.1 g/H: 1 day protectant; for SEPTTR 3DC disease control rating, LV activity at 125.1 g/H: 3 day curative; for SEPTTR 1DP, LV activity at 125.1 g/H (% Control rating): 1 Day Protectant; for SEPTTR 3DC, LV activity at 125.1 g/H (% Control rating): 3 Day Curative
Puccinia triticina = assay: Wheat brown rust (PUCCRT) disease control on wheat seedlings; set-up: key to PUCCRT 3DC, HV activity at 100 ppm (% control rating) / PUCCRT disease control, 3DC / PUCCRT 1DP disease control rating, HV activity / PUCCRT 3DC disease control rating, HV activity / PUCCRT 3DC, LV activity at 125.1 g/H (% Control rating) / PUCCRT 1DP, LV activity at 125.1 g/H (% Control rating) / PUCCRT 3DC disease control rating, LV activity at 125.1 g/H / PUCCRT 1DP disease control rating, LV activity at 125.1 g/H / PUCCRT 3DC disease control rating, HV activity at 100 ppm / PUCCRT 1DP disease control rating, HV activity at 100 ppm / HV activity at 100 ppm PUCCRT 3DC (disease control rating) / LV activity at 125.1 g/H PUCCRT 1DP (disease control rating) / LV activity at 125.1 g/H PUCCRT 3DC (disease control rating): A: > 80; B: ≤ 80; C: Not Tested; D: No Activity Observed in the Reported Assay; details: low volume application, 125.1 g/H; for PUCCRT 1DP disease control rating, LV activity at 125.1 g/H: 1 day protectant; for PUCCRT 3DC disease control rating, LV activity at 125.1 g/H: 3 day curative; for PUCCRT 1DP, LV activity at 125.1 g/H (% Control rating): 1 Day Protectant; for PUCCRT 3DC, LV activity at 125.1 g/H (% Control rating): 3 Day Curative
Phakopsora pachyrhizi = assay: Asian soybean rust (PHAKPA) disease control; details: 25 ppm; for PHAKPA disease control, 1DP: 1 Day Protectant; for PHAKPA disease control, 3DC: 3 Day Curative

| Compound | SEPTTR 1DP disease control rating, LV activity at 125.1 g/H (Zymoseptoria tritici) | SEPTTR 3DC disease control rating, LV activity at 125.1 g/H (Zymoseptoria tritici) | PUCCRT 1DP disease control rating, LV activity at 125.1 g/H (Puccinia triticina) | PUCCRT 3DC disease control rating, LV activity at 125.1 g/H (Puccinia triticina) | PHAKPA disease control, 1DP (Phakopsora pachyrhizi) | PHAKPA disease control, 3DC (Phakopsora pachyrhizi) | SEPTTR 1DP, LV activity at 125.1 g/H (% Control rating) (Zymoseptoria tritici) | SEPTTR 3DC, LV activity at 125.1 g/H (% Control rating) (Zymoseptoria tritici) | PUCCRT 1DP, LV activity at 125.1 g/H (% Control rating) (Puccinia triticina) | PUCCRT 3DC, LV activity at 125.1 g/H (% Control rating) (Puccinia triticina) |
| --- | --- | --- | --- | --- | --- | --- | --- | --- | --- | --- |
| COc1ccnc(C(=O)NC(C)C(=O)OC(C)C(OCC(C)C)C2CCCC2)c1OCOC(C)=O (stereo not shown) [Cmpd 915] | B (≤ 80) | A (> 80) | A (> 80) | A (> 80) | A (> 80) | B (≤ 80) | – | – | – | – |
| COc1ccnc(C(=O)N[C@@H](C)C(=O)O[C@@H](C)[C@H](OCC(C)C)c2ccccc2)c1OC(C)=O [Cmpd 879] | B (≤ 80) | A (> 80) | A (> 80) | A (> 80) | A (> 80) | B (≤ 80) | – | – | – | – |
| COc1ccnc(C(=O)N[C@@H](C)C(=O)O[C@@H](C)[C@H](Oc2ccc(C)cc2)C2CCCC2)c1OC(C)=O [Cmpd 923] | B (≤ 80) | B (≤ 80) | A (> 80) | A (> 80) | A (> 80) | B (≤ 80) | – | – | – | – |
| COc1ccnc(C(=O)N[C@@H](C)C(=O)O[C@@H](C)[C@H](Oc2ccccc2)c2ccccc2)c1OC(C)=O [Cmpd 501] | – | – | – | – | B (≤ 80) | B (≤ 80) | A (> 80) | A (> 80) | A (> 80) | A (> 80) |
| COc1ccnc(C(=O)N[C@@H](C)C(=O)O[C@@H](C)[C@@H](Cc2ccccc2)Oc2ccccc2)c1OCOC(C)=O [Cmpd 550] | – | – | – | – | B (≤ 80) | B (≤ 80) | A (> 80) | A (> 80) | A (> 80) | A (> 80) |
| COc1ccnc(C(=O)N[C@@H](C)C(=O)O[C@@H](C)[C@H](Oc2cccc(Cl)c2)C2CCCC2)c1OC(C)=O [Cmpd 920, (S)-(1R,2S)-1-(3-chlorophenoxy)-1-cyclopentylpropan-2-yl-2-(3-acetoxy-4-methoxypicolinamido)propanoate] | A (> 80) | A (> 80) | A (> 80) | A (> 80) | B (≤ 80) | B (≤ 80) | – | – | – | – |
| COc1ccnc(C(=O)N[C@@H](C)C(=O)O[C@@H](C)[C@H](Oc2cccc(F)c2)C(C)C)c1OCOC(C)=O [Cmpd 614] | – | – | – | – | A (> 80) | A (> 80) | B (≤ 80) | A (> 80) | A (> 80) | A (> 80) |
| COc1ccnc(C(=O)NC(C)C(=O)OC(C)COc2ccccc2)c1OC(C)=O (stereo not shown) [Cmpd 524] | – | – | – | – | – | – | B (≤ 80) | B (≤ 80) | D | B (≤ 80) |

From patent US20180000085A1, “USE OF PICOLINAMIDE COMPOUNDS WITH FUNGICIDAL ACTIVITY” (DOW AGROSCIENCES LLC, priority 2014, published 2018)
